A value given as a limit tells only on which side of the number the result lay.

This note sets out measurements from ChEMBL document CHEMBL1152783, “Octahydrophenanthrene-2,7-diol analogues as dissociated glucocorticoid receptor agonists: discovery and lead exploration” (J Med Chem, 2009).

The target in experiment [1] is T1, Glucocorticoid receptor (Homo sapiens, UniProt P04150).
T1 sequence (P04150 whole entry): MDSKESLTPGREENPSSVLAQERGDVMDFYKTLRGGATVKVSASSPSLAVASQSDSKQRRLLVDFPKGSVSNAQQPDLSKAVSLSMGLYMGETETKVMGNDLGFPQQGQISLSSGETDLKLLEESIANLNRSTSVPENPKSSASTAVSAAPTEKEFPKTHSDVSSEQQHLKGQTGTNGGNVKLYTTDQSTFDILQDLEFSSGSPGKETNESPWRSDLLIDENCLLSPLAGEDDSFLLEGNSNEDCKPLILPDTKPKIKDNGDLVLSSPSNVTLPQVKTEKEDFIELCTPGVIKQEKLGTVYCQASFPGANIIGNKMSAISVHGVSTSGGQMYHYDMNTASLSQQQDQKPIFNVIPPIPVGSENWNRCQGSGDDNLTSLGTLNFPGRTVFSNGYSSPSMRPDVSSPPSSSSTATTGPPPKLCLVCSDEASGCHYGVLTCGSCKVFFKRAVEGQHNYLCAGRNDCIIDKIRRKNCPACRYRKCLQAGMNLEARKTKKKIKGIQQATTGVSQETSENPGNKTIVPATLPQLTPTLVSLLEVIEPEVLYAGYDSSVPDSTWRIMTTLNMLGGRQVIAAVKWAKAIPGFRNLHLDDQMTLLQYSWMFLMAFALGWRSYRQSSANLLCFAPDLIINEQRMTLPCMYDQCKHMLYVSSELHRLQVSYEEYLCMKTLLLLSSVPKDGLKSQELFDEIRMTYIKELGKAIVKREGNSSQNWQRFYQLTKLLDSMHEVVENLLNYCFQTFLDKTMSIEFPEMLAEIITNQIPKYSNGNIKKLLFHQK
Description: Binding affinity to human glucocorticoid receptor.

Experiment [2] has as its target T1, Glucocorticoid receptor. Nature of the experiment: Transrepression activity at GR in human SW1353 cells assessed as inhibition of IL1-stimulated MMP13 production after 24 hrs by whole cell ELISA. It counts as cell-based. In general terms: ELISA stands for enzyme-linked immunosorbent assay.
For a further experiment, the target named is Estrogen receptor beta (Homo sapiens, UniProt Q92731). Nature of the experiment: Binding affinity to human ERbeta.
Another experiment has as its target T2, Estrogen receptor (Homo sapiens, UniProt P03372).
T2 sequence (P03372 whole entry): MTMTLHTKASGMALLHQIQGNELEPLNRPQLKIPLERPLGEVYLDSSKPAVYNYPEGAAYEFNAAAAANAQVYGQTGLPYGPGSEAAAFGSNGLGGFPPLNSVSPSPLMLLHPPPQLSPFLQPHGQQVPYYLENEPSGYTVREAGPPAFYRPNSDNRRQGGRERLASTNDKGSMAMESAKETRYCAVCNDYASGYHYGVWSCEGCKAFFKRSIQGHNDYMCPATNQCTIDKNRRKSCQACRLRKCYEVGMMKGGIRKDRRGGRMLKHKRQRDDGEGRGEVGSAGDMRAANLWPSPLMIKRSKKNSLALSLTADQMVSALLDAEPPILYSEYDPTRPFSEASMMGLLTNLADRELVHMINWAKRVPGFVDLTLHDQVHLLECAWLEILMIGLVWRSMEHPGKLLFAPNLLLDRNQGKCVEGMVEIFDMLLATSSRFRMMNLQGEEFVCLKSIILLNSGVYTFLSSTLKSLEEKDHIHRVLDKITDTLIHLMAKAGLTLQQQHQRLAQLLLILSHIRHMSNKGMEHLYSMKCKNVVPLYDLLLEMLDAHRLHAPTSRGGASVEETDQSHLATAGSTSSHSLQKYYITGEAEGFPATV
Description: Binding affinity to human ERalpha.

For another experiment, the target named is T3, Androgen receptor (Homo sapiens, UniProt P10275).
T3 sequence (P10275 whole entry): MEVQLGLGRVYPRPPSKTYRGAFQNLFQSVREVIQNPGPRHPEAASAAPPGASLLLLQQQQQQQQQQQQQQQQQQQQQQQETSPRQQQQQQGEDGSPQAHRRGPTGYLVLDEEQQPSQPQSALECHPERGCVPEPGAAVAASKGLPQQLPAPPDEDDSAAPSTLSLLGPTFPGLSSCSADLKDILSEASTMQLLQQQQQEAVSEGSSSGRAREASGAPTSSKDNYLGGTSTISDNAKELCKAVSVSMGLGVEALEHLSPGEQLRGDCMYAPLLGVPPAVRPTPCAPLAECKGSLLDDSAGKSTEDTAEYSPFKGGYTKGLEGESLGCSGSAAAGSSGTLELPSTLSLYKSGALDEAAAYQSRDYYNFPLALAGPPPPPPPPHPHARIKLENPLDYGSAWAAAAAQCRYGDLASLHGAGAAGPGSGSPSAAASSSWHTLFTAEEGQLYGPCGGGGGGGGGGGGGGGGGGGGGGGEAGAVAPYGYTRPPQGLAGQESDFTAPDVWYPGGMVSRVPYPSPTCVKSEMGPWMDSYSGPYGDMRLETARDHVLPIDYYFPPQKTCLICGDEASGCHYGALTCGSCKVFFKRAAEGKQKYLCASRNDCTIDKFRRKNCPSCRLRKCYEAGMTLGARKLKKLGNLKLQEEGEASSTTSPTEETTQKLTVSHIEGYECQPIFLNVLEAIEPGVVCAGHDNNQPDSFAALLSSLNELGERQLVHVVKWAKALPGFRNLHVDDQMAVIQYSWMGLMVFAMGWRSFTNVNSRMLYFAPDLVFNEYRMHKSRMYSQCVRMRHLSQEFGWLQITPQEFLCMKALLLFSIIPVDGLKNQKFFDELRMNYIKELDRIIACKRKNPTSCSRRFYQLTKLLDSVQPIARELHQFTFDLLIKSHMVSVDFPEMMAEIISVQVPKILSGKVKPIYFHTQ
Description: Binding affinity to human androgen receptor.

For a further experiment, the target named is T4, Progesterone receptor (Homo sapiens, UniProt P06401).
T4 sequence (P06401 whole entry): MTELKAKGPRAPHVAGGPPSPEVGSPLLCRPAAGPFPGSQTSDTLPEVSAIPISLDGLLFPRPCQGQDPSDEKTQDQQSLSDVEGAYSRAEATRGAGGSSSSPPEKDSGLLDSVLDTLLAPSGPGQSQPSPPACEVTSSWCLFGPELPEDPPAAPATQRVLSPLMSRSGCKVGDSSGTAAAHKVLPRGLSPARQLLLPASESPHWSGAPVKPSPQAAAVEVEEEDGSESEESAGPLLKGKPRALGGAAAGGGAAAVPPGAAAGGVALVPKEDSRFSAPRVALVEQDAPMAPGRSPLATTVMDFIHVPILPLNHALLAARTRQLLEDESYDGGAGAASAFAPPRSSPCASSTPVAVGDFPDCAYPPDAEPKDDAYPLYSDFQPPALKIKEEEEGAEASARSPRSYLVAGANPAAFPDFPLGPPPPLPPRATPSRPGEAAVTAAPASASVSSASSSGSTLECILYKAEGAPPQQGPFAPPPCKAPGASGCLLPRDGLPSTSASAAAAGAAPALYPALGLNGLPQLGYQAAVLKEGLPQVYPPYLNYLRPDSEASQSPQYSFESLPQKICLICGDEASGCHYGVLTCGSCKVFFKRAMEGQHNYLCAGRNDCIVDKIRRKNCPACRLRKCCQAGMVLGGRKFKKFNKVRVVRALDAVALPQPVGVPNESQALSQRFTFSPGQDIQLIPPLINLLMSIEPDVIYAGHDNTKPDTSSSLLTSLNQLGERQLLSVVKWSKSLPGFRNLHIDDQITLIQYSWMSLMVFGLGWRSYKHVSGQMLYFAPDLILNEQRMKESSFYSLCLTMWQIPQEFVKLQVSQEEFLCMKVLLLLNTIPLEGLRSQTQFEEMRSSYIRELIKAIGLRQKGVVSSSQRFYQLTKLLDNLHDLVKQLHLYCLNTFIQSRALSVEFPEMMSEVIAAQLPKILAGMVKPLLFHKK
Description: Binding affinity to human progesterone receptor.

The target of experiment [3] is T1, Glucocorticoid receptor. Description: Transrepression activity at GR in human SW1353 cells assessed as suppression of NFkappaB-induced IL8 production. It counts as cell-based.

Estrogen receptor beta, sequence (Q92731 whole entry): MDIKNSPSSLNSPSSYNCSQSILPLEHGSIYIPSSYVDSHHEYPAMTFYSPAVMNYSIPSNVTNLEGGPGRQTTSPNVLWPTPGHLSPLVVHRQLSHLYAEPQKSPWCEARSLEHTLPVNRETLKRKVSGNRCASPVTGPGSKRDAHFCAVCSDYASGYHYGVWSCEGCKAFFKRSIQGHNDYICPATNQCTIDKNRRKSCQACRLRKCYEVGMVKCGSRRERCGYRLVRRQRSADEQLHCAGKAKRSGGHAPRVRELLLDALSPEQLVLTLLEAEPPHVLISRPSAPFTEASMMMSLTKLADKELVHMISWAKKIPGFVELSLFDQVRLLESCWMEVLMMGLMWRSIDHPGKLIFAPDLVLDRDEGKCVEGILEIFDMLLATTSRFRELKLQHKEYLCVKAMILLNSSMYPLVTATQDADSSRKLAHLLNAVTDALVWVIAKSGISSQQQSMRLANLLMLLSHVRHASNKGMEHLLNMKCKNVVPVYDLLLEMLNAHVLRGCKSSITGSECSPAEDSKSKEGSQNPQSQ

One may read the IC50 as the concentration needed to halve the response being measured. As to `CC#C[C@@]1(O)CC[C@@]2(C)c3ccc(O)cc3CC[C@@H]2C1`, the IC50 at Glucocorticoid receptor [1] was 17 nM; at Glucocorticoid receptor [2] it was more than 5000 nM.
Take `CC#C[C@@]1(O)CC[C@@]2(CC)c3ccc(OCc4ccncc4)cc3CC[C@@H]2C1`: the half-inhibitory concentration (IC50) at Glucocorticoid receptor [1] worked out at 3 nM; on Estrogen receptor beta, 3500 nM; at Glucocorticoid receptor [2] it was 31 nM; at Estrogen receptor, 670 nM.
`CC#C[C@@]1(O)CC[C@@]2(CC)c3ccc(OCc4cccnc4C)cc3CC[C@@H]2C1`: the half-inhibitory concentration (IC50) on Glucocorticoid receptor [1] is 2.3 nM; at Estrogen receptor beta it was more than 10000 nM; on Glucocorticoid receptor [2], 6.3 nM; on Androgen receptor it was 880 nM; on Estrogen receptor, more than 10000 nM.
As to `CC#C[C@@]1(O)CC[C@@]2(CCC)c3ccc(O)cc3CC[C@@H]2C1`, the figures for the IC50 on Glucocorticoid receptor [1] and at Glucocorticoid receptor [2] were 1.5 nM and more than 5000 nM, respectively.
At Glucocorticoid receptor [1], `CC#C[C@@]1(O)CC[C@@]2(CO)c3ccc(O)cc3CC[C@@H]2C1` returned an IC50 of more than 1000 nM.
Consider `CC#C[C@]1(O)C[C@H]2CCc3cc(OCc4cccnc4C)ccc3[C@]2(CC)C[C@@H]1O`, for which the IC50 is 3.3 nM at Glucocorticoid receptor [1]; more than 10000 nM on Estrogen receptor beta; 15 nM on Glucocorticoid receptor [2]; more than 10000 nM on Androgen receptor; more than 10000 nM at Progesterone receptor; more than 10000 nM at Estrogen receptor.
As to `CC[C@@]12C[C@H](O)[C@H](c3ccccc3)C[C@H]1CCc1cc(O)ccc12`, the IC50 at Glucocorticoid receptor [1] came out at 1.3 nM; on Glucocorticoid receptor [2], 1100 nM.
Turning to `CC[C@@]12C[C@H](O)[C@](O)(c3ccccc3)C[C@H]1CCc1cc(OCc3cccnc3C)ccc12`, the IC50 at Glucocorticoid receptor [1] was 1.5 nM; at Estrogen receptor beta it was more than 10000 nM; on Glucocorticoid receptor [2] it was 38 nM; on Androgen receptor, more than 10000 nM; on Progesterone receptor it was more than 1000 nM; on Estrogen receptor, more than 10000 nM.
Consider `CC#C[C@@]1(O)CC[C@@]2(CCO)c3ccc(O)cc3CC[C@@H]2C1`, for which the half-maximal inhibitory concentration (IC50) at Glucocorticoid receptor [1] was more than 1000 nM.
Consider `CC#C[C@]1(O)C[C@H]2CCc3cc(O)ccc3[C@]2(CC)[C@H](O)C1`, for which the IC50 is 360 nM at Glucocorticoid receptor [1], more than 10000 nM on Estrogen receptor beta, more than 10000 nM at Androgen receptor and more than 10000 nM on Estrogen receptor.
As to `CC#C[C@]1(O)C[C@H]2CCc3cc(O)ccc3[C@]2(CC)C[C@@H]1O`, the half-maximal inhibitory concentration (IC50) on Glucocorticoid receptor [1] is 35 nM; on Estrogen receptor beta, more than 10000 nM; at Glucocorticoid receptor [2] it was 63 nM; at Androgen receptor, more than 10000 nM; on Progesterone receptor, more than 10000 nM; at Estrogen receptor, more than 10000 nM.
In the case of `CC[C@@]12CC[C@](O)(c3ccccc3)C[C@H]1CCc1cc(OCc3cccnc3C)ccc12`, the results for the IC50 on Glucocorticoid receptor [1] and at Glucocorticoid receptor [2] were 6 nM and 1500 nM, respectively.
In the case of `C=CCC12CC[C@](O)(C#CC)C[C@H]1CCc1cc(O)ccc12` (single isomer, unassigned), the IC50 was 6.2 nM on Glucocorticoid receptor [1]; 250 nM on Estrogen receptor beta; 14 nM at Glucocorticoid receptor [2]; more than 1000 nM at Androgen receptor; 1100 nM on Progesterone receptor; 93 nM on Estrogen receptor. On Glucocorticoid receptor [3], the half-maximal inhibitory concentration (IC50) was found to be 34 nM.
Turning to `CC[C@@]12C[C@H](O)[C@](O)(c3ccccc3)C[C@H]1CCc1cc(O)ccc12`, the IC50 at Glucocorticoid receptor [1] is 2.5 nM; on Estrogen receptor beta, 660 nM; at Glucocorticoid receptor [2], 140 nM; at Androgen receptor, more than 10000 nM; on Progesterone receptor it was 750 nM; at Estrogen receptor, 3400 nM.
As to `CC[C@@]12CC[C@](O)(c3ccccc3)C[C@H]1CCc1cc(O)ccc12`, the IC50 at Glucocorticoid receptor [1] is 21 nM; on Glucocorticoid receptor [2], more than 5000 nM.
For the compound `CC#C[C@@]1(O)CC[C@@]2(/C=C/C)c3ccc(O)cc3CC[C@@H]2C1`, the IC50 at Glucocorticoid receptor [1] is 3.5 nM; at Glucocorticoid receptor [2] it was more than 5000 nM.
For `CC[C@@]12C[C@@H](O)[C@](O)(c3ccccc3)C[C@H]1CCc1cc(O)ccc12`, in that order: 3.8 nM and 5000 nM.
In the case of `CC#C[C@@]1(O)CC[C@@]2(CC)c3ccc(O)cc3CC[C@@H]2C1`, the IC50 on Glucocorticoid receptor [1] is 5.6 nM; on Estrogen receptor beta, 580 nM; on Glucocorticoid receptor [2] it was 14 nM; at Androgen receptor it was 420 nM; at Progesterone receptor it was 2600 nM; on Estrogen receptor, 89 nM.
